These results are taken from BindingDB's records for patent US10844032 (Vanderbilt University, 2020).

This test concerns the target T1, Induced myeloid leukemia cell differentiation protein Mcl-1 [172-327] (Homo sapiens, UniProt Q07820).
T1 construct: 172-327
In words: Binding Assay.

T1 sequence (Q07820 172-327): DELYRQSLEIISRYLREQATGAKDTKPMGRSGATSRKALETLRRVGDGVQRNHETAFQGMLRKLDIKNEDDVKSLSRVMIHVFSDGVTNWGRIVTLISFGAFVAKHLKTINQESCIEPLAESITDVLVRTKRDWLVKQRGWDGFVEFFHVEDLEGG

In turn, `Cc1cc(OCCCc2c(C(=O)NS(=O)(=O)c3ccccc3)[nH]c3c(-c4c(COc5ccccn5)nn(C)c4C)cccc23)cc(C)c1Cl` [US10844032, Example 306] gave a Ki of less than 100 nM.

Turning to `Cc1cc(OCCCc2c(C(=O)NS(=O)(=O)c3ccccc3)[nH]c3c(-c4c(COc5cccnc5)nn(C)c4C)cccc23)cc(C)c1Cl` [US10844032, Example 307], the inhibitory constant (Ki) is less than 100 nM.
